Experimental data: patent publication US20260008818A1, “CYCLIC PEPTIDE OR SALT THEREOF, AND USES THEREOF” (FUJIFILM Corporation, priority 2023, published 2026)
Numbered stars: 1 amine (or outer) side, 2 acyl side, 3 side chain; on linkers, the order of the positions; unused ones are H or OH. Bridge positions count the residues as written; N and C are the ends. Square brackets hold non-standard residues; d marks the D form. Ends that are not written are not given here. I, II: the chains in the order shown. ξ: configuration not given here. ξY = NC(Cc1ccc(O)cc1)C(=O)O; ξR = N=C(N)NCCCC(N)C(=O)O; Dap = NC[C@H](N)C(=O)O; X1 = O=C(C[*:1])[*:2]; ξK = NCCCCC(N)C(=O)O; ξP = O=C(O)C1CCCN1; ξC = NC(CS)C(=O)O

Tests used:
[1] = system: hMSC-Human Mesenchymal Stem Cells; assay: Mesenchymal stem cell (MSC) proliferation-promoting effect; format: cell-based; details: 0.001 to 3 nmol/L, bFGF-free custom culture medium; viable cells normalized to 1 nmol/L bFGF = 100, negative control = 0
Method: The mesenchymal stem cell (MSC) proliferation-promoting effect of the cyclic peptide complex was evaluated.
The MSC was activated and subcultured according to the recommended protocol of FUJIFILM Irvine Scientific, Inc. using hMSC-Human Mesenchymal Stem Cells (Lonza, PT-2501) and PRIME-XV MSC Expansion XSFM (FUJIFILM Irvine Scientific, Inc., 91149) as a culture medium. MSCs that had been subcultured 1 to 4 times were used for the evaluation.
The evaluation of the proliferation-promoting effect of MSC was performed by the following method. First, a culture medium (hereinafter, referred to as a custom culture medium) in which bFGF was removed from PRIME-XV MSC Expansion XSFM (FUJIFILM Irvine Scientific, Inc., 91149) was prepared. Next, Prime-XV Human Fibronectin (FUJIFILM Irvine Scientific, Inc., 31002) was dissolved in PBS (Fujifilm Wako Pure Chemical Corporation, 164-23551), 2 μg/cm^2 of the solution was added to a 96-well plate used for evaluation, and the 96-well plate was allowed to stand at room temperature for 3 hours to coat the 96-well plate with fibronectin. […] The number of viable cells was calculated from the imaging data and normalized by setting the number of viable cells in the well to which 1 nmol/L bFGF was added to 100, and setting the number of viable cells in the negative control well to 0.

[2] = system: hMSC-Human Mesenchymal Stem Cells; assay: Effect of maintaining MSC undifferentiated potency (gene expression); format: cell-based; details: cyclic peptide complex 3 nmol/L or bFGF 1 nmol/L, normalized to 1 nmol/L bFGF = 1, bFGF compared with negative control
Method: The effect of maintaining mesenchymal stem cell (MSC) undifferentiated potency of the cyclic peptide complex was evaluated.
MSC was prepared in the same manner as in Example 7.
The evaluation of the effect of maintaining the MSC undifferentiated potency was performed by the following method. First, a culture medium (hereinafter, referred to as a custom culture medium) in which bFGF was removed from PRIME-XV MSC Expansion XSFM (FUJIFILM Irvine Scientific, Inc., 91149) was prepared. Next, Prime-XV Human Fibronectin (FUJIFILM Irvine Scientific, Inc., 31002) was dissolved in PBS (Fujifilm Wako Pure Chemical Corporation, 164-23551), 2 μg/cm^2 of the solution was added to a 12-well plate used for proliferation, and the 12-well plate was allowed to stand at room temperature for 3 hours to coat the 12-well plate with fibronectin. Thereafter, the MSCs subjected to the subculture were peeled using Tryple Express (Thermo, 12604-013), washed once with a custom culture medium, suspended in a custom culture medium in which a cyclic peptide complex or bFGF (R&D Systems, 3718-GMP) was diluted to final concentrations of 3 nmol/L and 1 nmol/L, and seeded on a 12-well plate coated with fibronectin. In this case, conditions in which the cyclic peptide complex and bFGF were not added as a negative control were prepared. After culturing at 37° C. (5% CO2) for 2 nights, the culture medium was replaced by removing the supernatant of the culture medium and adding the same amount of a culture medium prepared to have the same composition as the removed culture medium. After further culturing at 37° C. (5% CO2) for 2 nights, RNA was extracted using an RNeasy Plus Mini Kit (Qiagen, 74136) according to the manufacturer's protocol. […] The expression level of each gene was normalized by setting the expression level of the well to which 1 nmol/L bFGF was added to 1.

bovine myoblasts = assay: Bovine cell (myoblast) proliferation-promoting effect; format: cell-based, Japanese Black cattle; details: 0.03 to 10 nmol/L, 4 days; viable cells normalized to 30 ng/mL bFGF = 100, negative control = 0
Method: The bovine cells (myoblasts) proliferation-promoting effect of the cyclic peptide complex was evaluated.
Bovine myoblasts were separated from bovine muscle tissue by the following method. First, muscle tissue of Japanese Black cattle was finely chopped in HBSS (−) (phenol red-free) (FUJIFILM Wako Pure Chemical Corporation, 085-09355), and then pronase from Streptomyces griseus (Sigma-Aldrich, 10165921001) was added thereto to a final concentration of 1 mg/mL, and the mixture was allowed to stand at 37° C. for 1 hour. After allowing to stand, HBSS containing 10% FBS was added thereto, and the cells were acquired by centrifugation. The acquired cells were suspended in D-MEM (high glucose) (containing L-glutamine and phenol red) (FUJIFILM Wako Pure Chemical Corporation, 044-29765) containing 10% final concentration of bovine serum and 30 ng/mL bFGF. Suspended cells were cultured in a culture flask coated with an iMatrix-511 solution (FUJIFILM Wako Pure Chemical Corporation, 381-07363) at 0.55 μg/cm^2. […]
The evaluation of the proliferation-promoting effect on bovine myoblasts was performed by the following method. […] The number of viable cells was calculated from the imaging data and normalized by setting the number of viable cells in the well to which 30 ng/mL bFGF was added to 100, and setting the number of viable cells in the negative control well to 0.

Which results are given for “I: H[ξC]SYERLEFHGHEAPFRV[ξK]V[Dap]-NH2 / II: HCS[ξY]E[ξR]LQFHGHEA[ξP]FRVK[dV] (linker I:2-I:19, II:2-II:19 via X1; amide I:21-II:C) [SEQ ID NO: 393, (H-(C)-SYERLQFHGHEAPFRV-(K(acetyl))-V)2-Dap]”?
MSC proliferation action [1]: the same degree of MSC proliferation action as bFGF; expression level of Sox2 [2]: the same degree of a gene expression level as bFGF; bovine myoblast proliferation action (bovine myoblasts): about 80%
